Test results from patent publication US20050181462A1, “Mutant androgen receptor, cancer cells expressing the same, a method of producing them and use thereof” (priority 2002, published 2005).

Molecular target: T1, W741C type mutant AR (Homo sapiens, UniProt P10275, DUP77-80/W742C)
T1 construct: expressed in transfected cells; host or cells: Cos-7
Test: Antagonist screening: inhibition of DHT-induced W741C mutant AR transcription activity (luciferase co-transfection)
Type: cell-based
Conditions: 40 nM DHT + 10 μM Compound A
Source text: FIG. 4 is a drawing showing the antagonistic action of Compound A on a W741C type mutant AR. […] Mean±standard error, n=16 for the only-DHT addition group and n=4 for the DHT+Compound A addition group.

T1 sequence (P10275 with tags, fused parts or gaps DUP77-80/W742C): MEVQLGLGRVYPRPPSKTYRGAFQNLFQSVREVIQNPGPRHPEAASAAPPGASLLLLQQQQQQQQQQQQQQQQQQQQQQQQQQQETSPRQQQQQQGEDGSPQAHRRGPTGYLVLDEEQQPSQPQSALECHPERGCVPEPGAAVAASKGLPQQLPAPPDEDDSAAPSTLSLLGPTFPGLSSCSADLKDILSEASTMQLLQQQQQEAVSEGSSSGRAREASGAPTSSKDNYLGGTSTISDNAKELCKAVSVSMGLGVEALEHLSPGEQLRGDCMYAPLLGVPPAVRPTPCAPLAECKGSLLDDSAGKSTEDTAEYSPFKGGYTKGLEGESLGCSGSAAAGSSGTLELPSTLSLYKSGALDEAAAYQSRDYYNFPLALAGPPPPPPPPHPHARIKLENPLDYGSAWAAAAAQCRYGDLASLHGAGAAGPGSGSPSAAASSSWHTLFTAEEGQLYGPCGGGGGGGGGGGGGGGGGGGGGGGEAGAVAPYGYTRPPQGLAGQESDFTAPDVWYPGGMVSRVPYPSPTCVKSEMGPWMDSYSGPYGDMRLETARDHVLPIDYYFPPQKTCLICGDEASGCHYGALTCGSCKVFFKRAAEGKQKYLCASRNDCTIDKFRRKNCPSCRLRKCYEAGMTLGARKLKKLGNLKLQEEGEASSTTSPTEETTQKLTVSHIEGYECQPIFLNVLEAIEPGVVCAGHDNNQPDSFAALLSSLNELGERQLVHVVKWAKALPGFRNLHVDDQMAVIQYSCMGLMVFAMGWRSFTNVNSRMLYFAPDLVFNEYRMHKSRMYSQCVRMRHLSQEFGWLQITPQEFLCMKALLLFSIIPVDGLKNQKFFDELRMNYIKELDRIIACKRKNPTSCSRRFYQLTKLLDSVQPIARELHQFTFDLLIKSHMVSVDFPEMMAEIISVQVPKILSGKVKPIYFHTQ

action on W741C type mutant AR transcription activity of DHT: antagonist action
SMILES: CCOC(=O)c1c(C)[nH]c(C)c1-c1ccc([N+](=O)[O-])cc1 [Compound A, ethyl 2,5-dimethyl-4-(4-nitrophenyl)-1H-pyrrole-3-carboxylate]
